Assays:
NOD/scid mice = test: Graft-versus-host disease (human PBMCs); format: in vivo, mouse
Description: Two groups of NOD/scid mice of 8-10 weeks were used, and were kept in cages under sterile flow at an SPF animal facility.
On day −1, to avoid residual activity of natural killer cells, the mice were administered an anti-NK antibody intraperitoneally (TMβ-1.1 mg/mouse). On day 0 the mice were irradiated (300 rad) and they were administered, intraperitoneally, 20×10^6 human peripheral blood mononuclear cells (PBMCs), previously isolated. The PBMCs are isolated by means of buffy coat from blood from healthy donors.
On the same day, the mice were treated with […] intraperitoneally at two doses, 10 mg/kg and 20 mg/kg. The treatment was repeated daily for 15 days.
The mice were checked regularly 3 times a week to monitor the weight loss (also as independent variable) and signs of GvHD using a clinical score (0 for weight loss <10%, 1 for 10%-20%, 2 for 20%; hunching (0-2), reactivity (0-2), appearance of the fur (0-2), and skin integrity (0-2)), with a maximum score of 10.

dendritic cells (DCs) = test: Maturation of dendritic cells (flow cytometry of membrane antigens); format: cell-based
Description: The effect of […] on the various stages of maturation of the DCs was evaluated. The study was carried out using flow cytometry by analysing the principal membrane antigens characterizing the stage of differentiation and maturation of the DCs.
The DCs were obtained from peripheral whole blood and were plated in a suitable medium (DC medium). The immature DCs (DCi) on day 6 of culture were collected, analysed in the cytofluorimeter and were brought to maturation by stimulation with LPS 10 μg/ml overnight (O.N.). […] 300 μM was added to DC medium during the last 5 hours or simultaneously with maturation of the DCi with LPS (10 μg/ml) overnight. CD1a is a marker of immaturity specific to the DCs, expression of which decreases in mature DCs.
CD80 and CD86 are fundamental co-stimulatory molecules in the process of antigen presentation, and expression of them generally increases in mature DCs compared to immature DCs.

DBA/1J mice = test: Rheumatoid arthritis: type II collagen immunization; format: in vivo, mouse
Description: Rheumatoid arthritis (RA) is a chronic inflammatory disease that affects the joints in particular and is manifested by pain, stiffness and synovitis, which lead to destruction of the joint. Immunization of DBA/1J mice with type II collagen (CII) by intradermal injection, at the base of the tail, of 0.2 ml of an emulsion containing 2 mg/ml of bovine CII in complete Freund adjuvant induces T cells and autoantibodies specific to CII with clinical and histopathological signs that reproduce RA. Eighteen to twenty days after immunization, signs of inflammation appear, affecting one or more joints. At the first clinical signs of inflammation (inflammation of the digits and joints) with a score above 1.5 (Camps et al., 2005), we treated the animals with […] intraperitoneally (0.25 mg).
To establish the degree of infiltration of T cells in the arthritic lesions, sections fixed in formalin and embedded in paraffin were incubated with rabbit polyclonal anti-CD3 antibodies. After detection with peroxidase-labelled secondary antibodies, each sample was evaluated at 40× magnification and 3 immunoreactive “hot spots” were selected for counting the CD3^+ lymphocytes at 200× magnification.

mdx mice = test: Muscular dystrophy model; format: in vivo, mouse
Source text: The mdx mouse is characterized by a nonsense mutation in the dystrophin gene and constitutes an experimental model of DMD. The muscle of mdx is histologically normal in early postnatal development, but goes towards necrosis starting from the third week of life. The mdx mice show high levels of creatine kinase (CK) in the serum and accumulation of inflammatory cells, both markers of muscular degeneration. To assess the effect of […] in the progression of dystrophy and of inflammation in DMD, we treated mdx mice (n=10) at 4 weeks of age (in accordance with the recent SOPs for preclinical drug trials in mdx) with […] (0.25 mg/mouse) intraperitoneally every day for two weeks. The same number of mice of the same age was treated with the vehicle as control. After two weeks of treatment with […], the CK levels had decreased by 70% (P<0.05) (FIG. 33).
Cross sections of anterior tibial muscles stained with haematoxylin/eosin were quantified in duplicate in blind conditions with ImageJ software. In the same sections we also assessed centralization of the nucleus, degeneration of muscle fibres and their regeneration. […] The values obtained for the mice treated with […] were similar to those obtained for the control mice of the same age and genotype but without mutation in the dystrophin gene.
To assess the effect of […] on the inflammatory infiltrate in the muscle of mdx mice, the muscle sections were decorated with anti-CD3 antibodies (T cells). This analysis detected a 40% decrease in the number of cells positive for CD3.

[1] = tested on: mice with the R117H CFTR(CF) mutation and wild-type (WT) mice; test: Cystic fibrosis: intratracheal LPS in R117H CFTR and WT mice; format: in vivo, mouse
Description: For the experiments, 32 mice were used with the R117H CFTR(CF) mutation, responsible for the onset of the inflammatory disorder, and 18 wild-type (WT) mice with a genetic background of the C57BL/6 type.
The trachea was then intubated with a MicroSprayer (PennCentury), capable of vaporizing the drug as aerosol at a concentration of 25 μl of […] 300 μM or of vehicle. The mice were weighed daily.
On day 4, all the mice received the inflammatory stimulus (1 μg of LPS) together with […] or vehicle; separate experiments were conducted, inducing only the inflammatory stimulus in the mice. About 24 hours after administration of LPS, the mice were sacrificed and samples of BALF were collected, from which the cellular component was isolated, and was analysed under the microscope for characterizing its leukocyte phenotype.

mice = test: Visceral pain: acetic acid model; format: in vivo, mouse; conditions: 4 mg/kg intraperitoneally; FIG. 20
Description: We verified the effect of […] on a model of visceral pain. 30 mice were divided into two groups of 15: one group received […] 4 mg/kg intraperitoneally while the other group was treated with only the pharmaceutical vehicle. After the pre-treatment injection, 0.6% acetic acid was administered as a bolus injection 0.3 ml IP. The mice were put in individual observation chambers for assessing, after a period of 20 minutes, the number of contractions induced in each animal following injection of acetic acid. The count started 5 minutes after administration of acetic acid.

[2] = quantitative PCR, vs vehicle, FIG. 35

C=C(C=O)OC(C=O)n1cnc2c(N)ncnc21 (centres unmarked) [2-[1-(6-aminopurin-9-yl)-2-oxoethoxy]prop-2-enal]
resistance to GvHD (clinical score) (NOD/scid mice; 10 mg/kg and 20 mg/kg i.p. daily for 15 days, FIG. 37): statistically significant, dose-dependent resistance to GvHD | survival (NOD/scid mice; 10 and 20 mg/kg i.p., untreated all die within 50 days): reaching three months from transplant | modulation of CD40 (negative regulation) (dendritic cells (DCs); 300 μM): less marked | modulation of CD54 (negative regulation) (dendritic cells (DCs); 300 μM): less marked | class I histocompatibility antigen (dendritic cells (DCs); 300 μM, both overnight and at 5 hours): decreases | CD80 expression (dendritic cells (DCs); DCs matured with LPS, 300 μM): no effects on CD80 | CD86 expression (dendritic cells (DCs); DCs matured with LPS, 300 μM): negative regulation of CD86 | CD1a expression (marker of immaturity) (dendritic cells (DCs); DCs matured with LPS, IMMUFLAM 300 μM at 5 hrs, vs LPS alone): shown to increase | cartilage erosion (content of proteoglycans) (DBA/1J mice; 0.25 mg i.p., FIG. 29A): significant reduction in cartilage erosion | CD3+ lymphocytes infiltrating the joint (DBA/1J mice; 0.25 mg i.p., FIG. 29B): significant reduction in CD3+ lymphocytes | clinical score (DBA/1J mice; 0.25 mg intraperitoneally, from score above 1.5, vs carrier, FIG. 29C): significant reduction in the clinical score | decrease of creatine kinase (CK) levels (mdx mice; 0.25 mg/mouse i.p. daily for two weeks, P<0.05, FIG. 33): 70% | centralization of the nucleus (mdx mice; anterior tibial muscles): significant reductions | number of degenerative fibres (mdx mice; anterior tibial muscles): significant reductions | area of the muscle cross sections (CSA) (mdx mice; anterior tibial muscles, vs carrier, FIG. 34): significant increase in area of the muscle cross sections | decrease in the number of cells positive for CD3 in muscle (mdx mice; anti-CD3 stained muscle sections): 40% | I1-1β (mdx mice; [2]): significant reduction | levels of mRNA typical of the Treg cells (mdx mice; [2]): significant increase | reduction in concentrations of IL-1β, IL-6, TNFα and the murine analogue of IL-8 in BAL ([1]; CF and WT mice, FIGS. 42B and C): 56%-83% | decrease in neutrophil percentage relative to vehicle ([1]; CF mice, intratracheal LPS, 25 μl of 300 μM aerosol, p<0.001, FIG. 42A): 60% | decrease in the percentage of neutrophils ([1]; WT mice, intratracheal LPS, compared to 89% for vehicle, p<0.01): 47% | body weight ([1]; within first 24 hours, vehicle lost 4-8%, FIG. 41): no change in their body weight | visceral pain (number of contractions after acetic acid) (mice): effective in the treatment of visceral pain

— US20160129005A1, “ADENINE DERIVATIVES HAVING IMMUNOMODULATING ANTI-INFLAMMATORY AND ANALGESIC ACTIVITY” (MEDESTEA RESEARCH & PRODUCTION S.p.A., priority 2011, published 2016)
